From ChEMBL document CHEMBL3507680, “University of Dundee, Gates Library screen for HepG2 cell viability”

Assay: Human HepG2 cell viability assay in 384 well format
Format: toxicity, cell-based
Parameters: dose 125 nL, time 70.5 hour; concentration not given beside the values
Conditions: HepG2 cells, read-out: Inhibition

Structure (SMILES)	cytotoxicity at 70.5 h [%]
CCOc1cc(CN(C)CCC(=O)OC)ccc1OC(F)F	-2.34
CCOc1cc(CN(C)CCC#N)ccc1OC(F)F	-5.38
CCOc1cc(CN(C)CCCC#N)ccc1OC(F)F	-6.87
O=C(C(CNCc1ccco1)c1ccccc1)N1CCOCC1 (stereo unspecified)	-4.97
COc1cc(NCc2c(C)noc2C)c(OC)cc1Cl	10.4
COC(=O)CNC(=O)C1CCN(S(C)(=O)=O)CC1	-9.71
Cc1nn(CC(O)CN2CCc3ccccc3C2)c(=O)c2ccccc12 (stereo unspecified)	-17.4
CCN1CCC(NC(=O)CN2CCCC(NS(C)(=O)=O)C2)CC1 (stereo unspecified)	-10.1
Cc1nnc2n1CCN(c1nn3cc(C(C)(C)C)nc3s1)C2	-7.66
CNC(=O)NC(=O)CCN1CCCC1c1nc(C2CCCCC2)co1 (stereo unspecified)	-7.7
CCN(C(=O)COc1nc(C(C)(C)C)no1)C1CC1	-2.91
Cc1cnn(CCNCC(O)c2ccc(C(F)(F)F)cc2)c1 (stereo unspecified)	-17.1
Cc1cn2nc(N3CCn4c(nnc4C(C)C)C3)sc2n1	12
CC(NC(=O)c1ccc(C#N)cn1)C1(N2CCOCC2)CCCC1 (stereo unspecified)	-7.03
N#Cc1ccc(F)c(CNC(=O)NC(CO)Cc2ccccc2)c1 (stereo unspecified)	-3.61
CN(Cc1nnc2n1CCC2)S(=O)(=O)c1ccc(Br)cc1Cl	-4.12
CN(Cc1nnc2n1CCC2)S(=O)(=O)c1cc(Br)ccc1Br	-13.1
CNC(=O)NC(=O)CCSc1ccccc1Cl	-1.01
O=C(COCC1CC1)NCC(c1ccccc1)N1CCc2sccc2C1 (stereo unspecified)	-6.84
CC(NC(=O)Nc1nccs1)c1ccc(S(C)(=O)=O)cc1 (stereo unspecified)	-18.5
Cc1cccc(N2N=C(C(=O)NC(C)Cc3ccco3)CCC2=O)c1 (stereo unspecified)	-13.7
CC(Cc1ccco1)NC(=O)C1=NN(c2ccccc2)C(=O)CC1 (stereo unspecified)	16.9
CC(C)N(C)C(=O)c1ccc(Cl)c(NC(=O)CCN2C(=O)CCC2=O)c1	-9.99

Structure (SMILES)	cytotoxicity at 70.5 h [%]
CC(C)CC(=O)Nc1cc(C(=O)N(C)C(C)C)ccc1Cl	-8.37
NC(=O)Nc1cccc(C(=O)N(Cc2ccc(F)cc2)C2CC2)c1	-14.8
CC(=O)N1CCC(NC(=O)Cc2csc(C(C)(C)C)n2)CC1	-6.85
Cc1nnc(CN(C)S(=O)(=O)c2ccc(Br)cc2Cl)n1C	-8.93
CCC(=O)NC1CCCN(C(=O)Nc2cc(-c3ccccc3)on2)C1 (stereo unspecified)	-10.8
CC(C)OCCS(=O)(=O)c1nccn1-c1cccc(F)c1	-9.1
Cc1sc(Br)cc1S(=O)(=O)NCc1ccccn1	-18.2
COCCCNS(=O)(=O)c1cc(Br)sc1C	-6.02
CCC1CN(CC(=O)NCCC#N)CCO1 (stereo unspecified)	2.5
CN1CC(NC(=O)Cc2csc(C(C)(C)C)n2)CCC1=O (stereo unspecified)	20.1
CC(C)(C)c1noc(CCCC(=O)N2CCCC(c3ccn[nH]3)C2)n1 (stereo unspecified)	-2.4
CCc1noc(CCCC(=O)N2CCCC(c3ccn[nH]3)C2)n1 (stereo unspecified)	-5.32
CC1CCN(C(=O)CN2CCC(c3n[nH]c(C4CC4)n3)CC2)CC1	-1.53
Cc1noc(C2CCCN(CC(=O)N3CCc4ccccc4C3)C2)n1 (stereo unspecified)	-1.69
O=C(CCN1C(=O)CCC1=O)Nc1ccc(Cl)cc1	-1.6
O=C(CCN1C(=O)CCC1=O)Nc1ccc(Oc2ccc(Cl)cc2)nc1	-10.7
Cc1noc(C2CCN(CC(=O)N3CCNC(=O)C3)CC2)n1	17.7
CNC(=O)c1cccc(NC(=O)NC(C)c2cc(C)oc2C)c1C (stereo unspecified)	-8.35
CCN(C(=O)CN1CCC(c2n[nH]c(C3CC3)n2)CC1)C1CC1	-5.09
C=C(C)CN1CCC(c2n[nH]c(C3CC3)n2)CC1	23.2
N#Cc1cccc(S(=O)(=O)Nc2c(F)cccc2N2CCCC2)c1	-5.48
CCOc1ccccc1CNC(=O)N(CC)C(C)c1cccnc1 (stereo unspecified)	-6.76
CC(C)(C)Oc1ccccc1CNC(=O)C1CCCOC1 (stereo unspecified)	-0.0152
